Reference: ChEMBL document CHEMBL4507301 (2021)

Experiments:
[1] = target: TGF-beta receptor type-2 (Homo sapiens) (UniProt P37173); settings: Compound concentration 1000.0 nM
[2] = target: Tyrosine-protein kinase Tec (Homo sapiens) (UniProt P42680); settings: Compound concentration 1000.0 nM
[3] = target: Tyrosine-protein kinase Yes (Homo sapiens) (UniProt P07947); settings: Compound concentration 1000.0 nM
[4] = target: Casein kinase I isoform gamma-1 (Homo sapiens) (UniProt Q9HCP0); settings: Compound concentration 1000.0 nM
[5] = target: Serine/threonine-protein kinase haspin (Homo sapiens) (UniProt Q8TF76); settings: Compound concentration 1000.0 nM
[6] = target: Ribosomal protein S6 kinase alpha-6 (Homo sapiens) (UniProt Q9UK32); settings: Compound concentration 1000.0 nM
[7] = target: Sigma intracellular receptor 2 (Homo sapiens) (UniProt Q5BJF2); settings: Compound concentration 10.0 uM
[8] = target: Cyclin-dependent kinase-like 5 (Homo sapiens) (UniProt O76039); settings: Compound concentration 1000.0 nM
[9] = target: Cyclin-dependent kinase 11B (Homo sapiens) (UniProt P21127); settings: Compound concentration 1000.0 nM
[10] = tested on: Epidermal growth factor receptor (Homo sapiens), P00533 [G719S]; settings: Compound concentration 1000.0 nM
[11] = target: D(2) dopamine receptor (Homo sapiens) (UniProt P14416); settings: Compound concentration 10.0 uM
[12] = target: Serine/threonine-protein kinase SIK1 (Homo sapiens) (UniProt P57059); settings: Compound concentration 1000.0 nM
[13] = tested on: Epidermal growth factor receptor (Homo sapiens), P00533 [UNDEFINED MUTATION]; settings: Compound concentration 1000.0 nM
[14] = target: 5-hydroxytryptamine receptor 1E (Homo sapiens) (UniProt P28566); settings: Compound concentration 10.0 uM
[15] = target: Serine/threonine-protein kinase MRCK beta (Homo sapiens) (UniProt Q9Y5S2); settings: Compound concentration 1000.0 nM
[16] = target: Serine/threonine-protein kinase N1 (Homo sapiens) (UniProt Q16512); settings: Compound concentration 1000.0 nM
[17] = tested on: Tyrosine-protein kinase ABL1 (Homo sapiens), P00519 [Q252H]; settings: Compound concentration 1000.0 nM
[18] = tested on: Tyrosine-protein kinase ABL1 (Homo sapiens), P00519 [F317I]; settings: Compound concentration 1000.0 nM
[19] = target: Ribosomal protein S6 kinase beta-1 (Homo sapiens) (UniProt P23443); settings: Compound concentration 1000.0 nM
[20] = tested on: Epidermal growth factor receptor (Homo sapiens), P00533 [G719C]; settings: Compound concentration 1000.0 nM
[21] = target: SNF-related serine/threonine-protein kinase (Homo sapiens) (UniProt Q9NRH2); settings: Compound concentration 1000.0 nM
[22] = target: Insulin-like growth factor 1 receptor (Homo sapiens) (UniProt P08069); settings: Compound concentration 1000.0 nM
[23] = tested on: Tyrosine-protein kinase ABL1 (Homo sapiens), P00519 [F317L]; settings: Compound concentration 1000.0 nM
[24] = target: Casein kinase I isoform epsilon (Homo sapiens) (UniProt P49674); settings: Compound concentration 1000.0 nM
[25] = target: Serine/threonine-protein kinase 32C (Homo sapiens) (UniProt Q86UX6); settings: Compound concentration 1000.0 nM
[26] = target: Serine/threonine-protein kinase MARK1 (Homo sapiens) (UniProt Q9P0L2); settings: Compound concentration 1000.0 nM
[27] = tested on: Phosphatidylinositol 4,5-bisphosphate 3-kinase catalytic subunit alpha isoform (Homo sapiens), P42336 [C420R]; settings: Compound concentration 1000.0 nM
[28] = target: Activated CDC42 kinase 1 (Homo sapiens) (UniProt Q07912); settings: Compound concentration 1000.0 nM
[29] = target: Dual specificity testis-specific protein kinase 1 (Homo sapiens) (UniProt Q15569); settings: Compound concentration 1000.0 nM
[30] = target: Receptor tyrosine-protein kinase erbB-4 (Homo sapiens) (UniProt Q15303); settings: Compound concentration 1000.0 nM
[31] = target: Serine/threonine-protein kinase Nek6 (Homo sapiens) (UniProt Q9HC98); settings: Compound concentration 1000.0 nM
[32] = target: SRSF protein kinase 3 (Homo sapiens) (UniProt Q9UPE1); settings: Compound concentration 1000.0 nM
[33] = target: Serine/threonine-protein kinase PAK 5 (Homo sapiens) (UniProt Q9P286); settings: Compound concentration 1000.0 nM
[34] = target: Delta-type opioid receptor (Homo sapiens) (UniProt P41143); settings: Compound concentration 10.0 uM
[35] = target: Serine/threonine-protein kinase MAK (Homo sapiens) (UniProt P20794); settings: Compound concentration 1000.0 nM
[36] = target: Calcium/calmodulin-dependent protein kinase type 1G (Homo sapiens) (UniProt Q96NX5); settings: Compound concentration 1000.0 nM
[37] = target: Receptor-type tyrosine-protein kinase FLT3 (Homo sapiens) (UniProt P36888); settings: Compound concentration 1000.0 nM
[38] = target: Tyrosine-protein kinase Mer (Homo sapiens) (UniProt Q12866); settings: Compound concentration 1000.0 nM
[39] = target: Death-associated protein kinase 1 (Homo sapiens) (UniProt P53355); settings: Compound concentration 1000.0 nM
[40] = target: Phosphatidylinositol 4-phosphate 5-kinase type-1 gamma (Homo sapiens) (UniProt O60331); settings: Compound concentration 1000.0 nM
[41] = target: Serine/threonine-protein kinase pim-1 (Homo sapiens) (UniProt P11309); settings: Compound concentration 1000.0 nM
[42] = target: 3-phosphoinositide-dependent protein kinase 1 (Homo sapiens) (UniProt O15530); settings: Compound concentration 1000.0 nM
[43] = target: Mitogen-activated protein kinase 13 (Homo sapiens) (UniProt O15264); settings: Compound concentration 1000.0 nM
[44] = target: Tyrosine-protein kinase HCK (Homo sapiens) (UniProt P08631); settings: Compound concentration 1000.0 nM
[45] = target: Activin receptor type-1-like (Homo sapiens) (UniProt P37023); settings: Compound concentration 1000.0 nM

Sequence of Cyclin-dependent kinase 11B (Homo sapiens) (P21127 whole entry): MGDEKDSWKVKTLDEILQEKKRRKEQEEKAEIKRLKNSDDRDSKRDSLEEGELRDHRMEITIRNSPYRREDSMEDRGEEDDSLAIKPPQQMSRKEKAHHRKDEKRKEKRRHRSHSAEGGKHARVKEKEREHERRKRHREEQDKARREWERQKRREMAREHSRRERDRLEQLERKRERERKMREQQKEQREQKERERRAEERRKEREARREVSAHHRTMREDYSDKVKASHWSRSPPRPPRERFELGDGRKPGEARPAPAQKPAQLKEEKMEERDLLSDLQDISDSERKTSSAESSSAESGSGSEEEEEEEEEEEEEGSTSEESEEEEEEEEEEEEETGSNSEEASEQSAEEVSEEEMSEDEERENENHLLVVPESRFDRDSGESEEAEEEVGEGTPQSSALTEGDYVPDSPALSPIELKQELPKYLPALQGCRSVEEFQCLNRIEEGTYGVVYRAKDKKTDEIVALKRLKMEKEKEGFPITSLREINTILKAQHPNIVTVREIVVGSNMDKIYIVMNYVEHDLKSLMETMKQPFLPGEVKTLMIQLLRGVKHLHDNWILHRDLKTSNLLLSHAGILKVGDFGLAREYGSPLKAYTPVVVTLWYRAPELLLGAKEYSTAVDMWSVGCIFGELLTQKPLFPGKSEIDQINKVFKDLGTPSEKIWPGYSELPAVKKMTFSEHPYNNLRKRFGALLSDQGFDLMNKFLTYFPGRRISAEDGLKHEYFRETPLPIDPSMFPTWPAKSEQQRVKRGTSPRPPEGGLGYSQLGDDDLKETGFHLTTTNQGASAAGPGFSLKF
Sequence of Cyclin-dependent kinase-like 5 (Homo sapiens) (O76039 whole entry): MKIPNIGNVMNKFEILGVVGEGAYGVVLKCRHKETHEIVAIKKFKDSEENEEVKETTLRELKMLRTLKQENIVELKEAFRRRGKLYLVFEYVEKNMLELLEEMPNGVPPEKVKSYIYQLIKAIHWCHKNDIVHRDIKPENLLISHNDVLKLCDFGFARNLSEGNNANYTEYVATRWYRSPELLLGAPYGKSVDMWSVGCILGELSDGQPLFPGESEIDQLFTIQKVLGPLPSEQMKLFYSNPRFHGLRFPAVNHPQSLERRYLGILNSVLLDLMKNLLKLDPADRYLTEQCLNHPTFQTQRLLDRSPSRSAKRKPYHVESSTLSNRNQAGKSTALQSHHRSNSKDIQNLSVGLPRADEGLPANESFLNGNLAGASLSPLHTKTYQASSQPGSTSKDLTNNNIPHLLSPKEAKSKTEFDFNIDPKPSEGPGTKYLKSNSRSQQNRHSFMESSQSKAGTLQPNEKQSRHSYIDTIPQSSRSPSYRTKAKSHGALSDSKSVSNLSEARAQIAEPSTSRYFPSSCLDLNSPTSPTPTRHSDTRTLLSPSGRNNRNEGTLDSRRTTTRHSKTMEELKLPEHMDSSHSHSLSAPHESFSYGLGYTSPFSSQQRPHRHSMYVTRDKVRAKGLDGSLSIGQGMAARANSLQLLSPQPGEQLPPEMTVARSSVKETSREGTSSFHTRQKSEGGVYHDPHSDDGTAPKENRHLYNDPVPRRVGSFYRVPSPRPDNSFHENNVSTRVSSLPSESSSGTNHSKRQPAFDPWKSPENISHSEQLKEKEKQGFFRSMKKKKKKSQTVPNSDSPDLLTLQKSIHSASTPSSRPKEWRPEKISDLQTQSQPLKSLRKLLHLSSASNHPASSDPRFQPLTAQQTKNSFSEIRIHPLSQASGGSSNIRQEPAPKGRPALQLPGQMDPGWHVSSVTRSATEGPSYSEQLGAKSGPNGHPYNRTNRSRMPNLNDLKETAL
Sequence of Delta-type opioid receptor (Homo sapiens) (P41143 whole entry): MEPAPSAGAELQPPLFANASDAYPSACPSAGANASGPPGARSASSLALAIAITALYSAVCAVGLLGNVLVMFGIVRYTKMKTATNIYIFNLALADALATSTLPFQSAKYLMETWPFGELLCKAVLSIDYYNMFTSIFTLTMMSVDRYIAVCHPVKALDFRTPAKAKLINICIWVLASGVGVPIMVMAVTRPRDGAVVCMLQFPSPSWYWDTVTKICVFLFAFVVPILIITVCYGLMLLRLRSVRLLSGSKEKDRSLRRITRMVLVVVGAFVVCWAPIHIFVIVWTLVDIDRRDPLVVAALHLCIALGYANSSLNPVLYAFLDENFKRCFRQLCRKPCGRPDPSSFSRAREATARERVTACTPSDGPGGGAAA
Sequence of Dual specificity testis-specific protein kinase 1 (Homo sapiens) (Q15569 whole entry, looked up): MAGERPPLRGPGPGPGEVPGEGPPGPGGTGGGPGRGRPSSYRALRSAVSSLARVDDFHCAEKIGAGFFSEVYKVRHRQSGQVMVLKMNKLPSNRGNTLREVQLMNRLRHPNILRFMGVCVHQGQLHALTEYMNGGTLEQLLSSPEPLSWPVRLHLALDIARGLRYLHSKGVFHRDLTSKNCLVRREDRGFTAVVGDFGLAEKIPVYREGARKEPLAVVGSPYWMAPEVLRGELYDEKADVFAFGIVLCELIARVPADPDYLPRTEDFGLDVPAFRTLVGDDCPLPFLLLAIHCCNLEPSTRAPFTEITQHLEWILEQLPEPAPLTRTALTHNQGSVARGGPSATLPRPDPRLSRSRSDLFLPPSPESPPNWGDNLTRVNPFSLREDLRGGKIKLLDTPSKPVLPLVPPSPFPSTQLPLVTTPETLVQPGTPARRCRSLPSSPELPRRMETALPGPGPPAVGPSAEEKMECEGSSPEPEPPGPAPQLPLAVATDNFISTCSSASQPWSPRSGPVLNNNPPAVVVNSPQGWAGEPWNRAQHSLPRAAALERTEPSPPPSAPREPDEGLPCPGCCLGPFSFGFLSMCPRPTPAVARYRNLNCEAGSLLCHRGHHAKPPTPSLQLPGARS
Sequence of D(2) dopamine receptor (Homo sapiens) (P14416 whole entry): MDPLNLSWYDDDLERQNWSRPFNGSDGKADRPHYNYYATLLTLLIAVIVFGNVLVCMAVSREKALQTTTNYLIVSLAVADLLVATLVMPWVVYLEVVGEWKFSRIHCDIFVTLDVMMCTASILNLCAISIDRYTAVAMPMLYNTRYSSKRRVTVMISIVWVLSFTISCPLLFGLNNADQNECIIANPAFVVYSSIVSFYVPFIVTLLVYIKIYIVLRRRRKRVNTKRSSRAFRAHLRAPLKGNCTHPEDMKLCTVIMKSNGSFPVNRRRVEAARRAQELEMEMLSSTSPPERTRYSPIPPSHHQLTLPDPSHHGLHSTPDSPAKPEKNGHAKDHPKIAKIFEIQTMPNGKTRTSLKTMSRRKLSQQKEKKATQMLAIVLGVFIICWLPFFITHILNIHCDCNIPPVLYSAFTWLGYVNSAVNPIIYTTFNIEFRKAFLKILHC
Sequence of Serine/threonine-protein kinase MRCK beta (Homo sapiens) (Q9Y5S2 whole entry): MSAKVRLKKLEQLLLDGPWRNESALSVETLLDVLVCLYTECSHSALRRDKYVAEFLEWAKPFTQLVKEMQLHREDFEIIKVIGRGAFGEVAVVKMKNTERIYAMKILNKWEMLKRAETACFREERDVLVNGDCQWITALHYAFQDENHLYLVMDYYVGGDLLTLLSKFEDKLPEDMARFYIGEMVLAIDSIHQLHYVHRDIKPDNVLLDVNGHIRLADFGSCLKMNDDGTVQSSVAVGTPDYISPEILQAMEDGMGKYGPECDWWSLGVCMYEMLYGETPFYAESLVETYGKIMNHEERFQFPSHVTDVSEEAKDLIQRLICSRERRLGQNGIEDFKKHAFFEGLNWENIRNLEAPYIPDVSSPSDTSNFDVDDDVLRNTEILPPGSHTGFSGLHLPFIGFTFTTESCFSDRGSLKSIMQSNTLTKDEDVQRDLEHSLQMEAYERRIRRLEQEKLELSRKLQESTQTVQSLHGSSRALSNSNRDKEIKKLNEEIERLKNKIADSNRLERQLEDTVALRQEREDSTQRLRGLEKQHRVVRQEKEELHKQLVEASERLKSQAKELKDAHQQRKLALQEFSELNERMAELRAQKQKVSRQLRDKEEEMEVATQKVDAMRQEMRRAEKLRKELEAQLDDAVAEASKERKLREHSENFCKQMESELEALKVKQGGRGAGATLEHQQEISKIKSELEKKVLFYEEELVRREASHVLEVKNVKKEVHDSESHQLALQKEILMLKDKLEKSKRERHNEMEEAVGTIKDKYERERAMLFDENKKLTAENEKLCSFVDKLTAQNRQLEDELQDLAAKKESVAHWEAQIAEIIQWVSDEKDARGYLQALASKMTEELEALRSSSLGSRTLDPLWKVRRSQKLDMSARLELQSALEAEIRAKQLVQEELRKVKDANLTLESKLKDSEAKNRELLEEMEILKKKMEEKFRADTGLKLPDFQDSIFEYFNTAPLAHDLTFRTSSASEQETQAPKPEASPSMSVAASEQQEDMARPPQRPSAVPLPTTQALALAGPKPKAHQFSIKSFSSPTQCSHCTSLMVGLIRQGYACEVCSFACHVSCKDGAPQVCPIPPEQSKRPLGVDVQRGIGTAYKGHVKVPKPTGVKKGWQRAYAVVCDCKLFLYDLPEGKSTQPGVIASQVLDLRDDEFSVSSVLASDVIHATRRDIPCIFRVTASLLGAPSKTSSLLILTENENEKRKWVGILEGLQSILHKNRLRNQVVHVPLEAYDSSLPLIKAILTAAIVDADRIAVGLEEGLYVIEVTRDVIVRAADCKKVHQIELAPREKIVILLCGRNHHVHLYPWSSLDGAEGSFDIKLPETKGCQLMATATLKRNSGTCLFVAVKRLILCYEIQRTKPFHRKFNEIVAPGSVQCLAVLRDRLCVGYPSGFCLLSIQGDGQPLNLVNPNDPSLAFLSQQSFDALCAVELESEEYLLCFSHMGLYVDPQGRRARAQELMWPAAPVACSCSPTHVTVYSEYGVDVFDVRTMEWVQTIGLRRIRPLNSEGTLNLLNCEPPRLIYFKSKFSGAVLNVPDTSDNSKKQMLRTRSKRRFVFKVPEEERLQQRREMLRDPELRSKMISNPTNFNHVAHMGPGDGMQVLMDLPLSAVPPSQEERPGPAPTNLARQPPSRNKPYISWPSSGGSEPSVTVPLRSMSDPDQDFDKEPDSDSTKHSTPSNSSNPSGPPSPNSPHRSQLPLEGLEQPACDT

## C[C@H](c1cccc(C#N)c1)n1cc(Cl)cc(C(N)=O)c1=N [(R)-9s]
[1]
  residual activity: 100%
[2]
  residual activity: 100%
[3]
  residual activity: 88%
[4]
  residual activity: 96%
[5]
  residual activity: 91%
[6]
  residual activity: 100%
[7]
  inhibition: 53.6%
[8]
  residual activity: 73%
[9]
  residual activity: 86%
[10]
  residual activity: 100%
[11]
  inhibition: 1.55%
[12]
  residual activity: 100%
[13]
  residual activity: 99%
[14]
  inhibition: -3.17%
[15]
  residual activity: 85%
[16]
  residual activity: 65%
[17]
  residual activity: 100%
[18]
  residual activity: 89%
[19]
  residual activity: 100%
[20]
  residual activity: 100%
[21]
  residual activity: 100%
[22]
  residual activity: 100%
[23]
  residual activity: 75%
[24]
  residual activity: 99%
[25]
  residual activity: 100%
[26]
  residual activity: 97%
[27]
  residual activity: 100%
[28]
  residual activity: 83%
[29]
  residual activity: 86%
[30]
  residual activity: 100%
[31]
  residual activity: 94%
[32]
  residual activity: 100%
[33]
  residual activity: 100%
[34]
  inhibition: -7.87%
[35]
  residual activity: 100%
[36]
  residual activity: 100%
[37]
  residual activity: 90%
[38]
  residual activity: 96%
[39]
  residual activity: 100%
[40]
  residual activity: 99%
[41]
  residual activity: 100%
[42]
  residual activity: 100%
[43]
  residual activity: 100%
[44]
  residual activity: 98%
[45]
  residual activity: 93%

## C[C@@H](c1cccc(C#N)c1)n1cc(Cl)cc(C(N)=O)c1=N [(S)-9s]
[1]
  residual activity: 100%
[2]
  residual activity: 88%
[3]
  residual activity: 93%
[4]
  residual activity: 82%
[5]
  residual activity: 100%
[6]
  residual activity: 100%
[7]
  inhibition: 20.7%
[8]
  residual activity: 89%
[9]
  residual activity: 86%
[10]
  residual activity: 100%
[11]
  inhibition: -3.06%
[12]
  residual activity: 96%
[13]
  residual activity: 100%
[14]
  inhibition: -1.72%
[15]
  residual activity: 100%
[16]
  residual activity: 83%
[17]
  residual activity: 68%
[18]
  residual activity: 100%
[19]
  residual activity: 100%
[20]
  residual activity: 100%
[21]
  residual activity: 100%
[22]
  residual activity: 96%
[23]
  residual activity: 85%
[24]
  residual activity: 100%
[25]
  residual activity: 100%
[26]
  residual activity: 100%
[27]
  residual activity: 100%
[28]
  residual activity: 95%
[29]
  residual activity: 74%
[30]
  residual activity: 100%
[31]
  residual activity: 79%
[32]
  residual activity: 100%
[33]
  residual activity: 97%
[34]
  inhibition: -3.33%
[35]
  residual activity: 94%
[36]
  residual activity: 100%
[37]
  residual activity: 92%
[38]
  residual activity: 82%
[39]
  residual activity: 100%
[40]
  residual activity: 100%
[41]
  residual activity: 100%
[42]
  residual activity: 100%
[43]
  residual activity: 98%
[44]
  residual activity: 91%
[45]
  residual activity: 80%
